Data from PMC5613062 (Investigational New Drugs, 2017).
Read-outs that look alike come from different tables or passages of the source. Marks after values point to notes of the source that are not given here. One block for each molecule: values may come before it.

What was measured:
[1] = system: Calu-6 human non-small cell lung cancer xenograft; parameters: method as in earlier work; conditions: AZD6244 3 mg/kg BD; AZD2171 […] QD; ref IB; cited from earlier work
[2] = parameters: method as in earlier work; conditions: twice-daily oral dosing in SBE-CD, monkeys; no notable gastrointestinal tract or renal pathology; ref IB; cited from earlier work
[3] = cited from earlier work
[4] = ref Study D1532C00005, cited from earlier work
[5] = system: SW620 human colorectal cancer xenograft; parameters: method as in earlier work; conditions: ref IB, cited from earlier work
[6] = system: HCT-116 human colorectal cancer xenograft; parameters: method as in earlier work; conditions: AZD6244 25 m/kg BD; docetaxel 15 mg/kg once weekly; ref IB; cited from earlier work
[7] = parameters: method as in product label; conditions: ref product label, cited from earlier work
[8] = parameters: method as in product label; conditions: ref product label, cited from earlier work; remark: listed apart in the source
[9] = Pharmacokinetics alone and in combination, selumetinib + erlotinib arm
[10] = Pharmacokinetics alone and in combination, selumetinib + temsirolimus arm; type: in vivo, human; conditions: human, plasma, iv; for AUC(0-t) / AUC(0–12) / Cmax: geometric mean (% CV); for AUC(0-t): read-out: AUC(0–8); for AUC(0–12): read-out: AUC(0–12); for Cmax: read-out: Cmax; for tmax: median (range), read-out: tmax
[11] = system: Lovo colorectal cancer xenograft; parameters: method as in earlier work; conditions: rapamycin experiment, usual monotherapy schedules, doses not given; ref IB; cited from earlier work
[12] = AZD6244 25 mg/kg BD, irinotecan 25 mg/kg once weekly, docetaxel 15 mg/kg once weekly
[13] = NSCLC patients, single-agent erlotinib 150 mg
[14] = geometric mean, QD cohorts, dosed alone, selumetinib 150 mg cohort (N = 13), erlotinib 100 mg QD
[15] = dosed alone, selumetinib 50 mg cohort (N = 25), temsirolimus 25 mg IV
[16] = dosed alone, selumetinib 75 mg cohort (N = 6), temsirolimus 25 mg IV
[17] = dosed in combination, selumetinib 50 mg BID (N = 22) + temsirolimus 25 mg IV
[18] = dosed in combination, selumetinib 75 mg BID (N = 5) + temsirolimus 25 mg IV

SMILES: COc1cc2c(Oc3ccc4[nH]c(C)cc4c3F)ncnc2cc1OCCCN1CCCC1 [AZD2171, reference compound]
Tumor growth inhibition as a % of control [1]: 49.6 % of control

SMILES: Cn1cnc2c(F)c(Nc3ccc(Br)cc3Cl)c(C(=O)NOCCO)cc21 [AZD6244 Hyd-Sulfate]
toxicity findings [2]: fluid and/or red colored feces | toxicity findings, 6-month study ([3]; male mice dosed 8–15 weeks at the high dose level, ref IB): dilation of the corpus spongiosum | tissue mineralization ([3]; mice dosed for up to one month, ref IB): multiple tissues (cornea, kidney, liver, myocardium, skeletal muscle, glandular stomach) | toxicity findings at non-tolerated dose levels ([3]; mouse, in vivo, po): gastrointestinal tract toxicity and hematopoietic atrophy | DLT in the first 22 days of dosing ([4]; 75 mg BD cohort, one DLT): CTCAE Grade 3 fatigue | DLTs in the first 22 days of dosing ([4]; 100mg BD cohort, two DLTs): pleural effusion and rash (both CTC AE Grade 3) | maximum tolerated dose ([4]; capsule formulation): 75 mg BD

SMILES: CC(=O)O[C@@]12CO[C@@H]1C[C@H](O)[C@@]1(C)C(=O)[C@H](O)C3=C(C)[C@@H](OC(=O)[C@H](O)[C@@H](NC(=O)OC(C)(C)C)c4ccccc4)C[C@@](O)([C@@H](OC(=O)c4ccccc4)[C@H]21)C3(C)C [Docetaxel]
Tumor growth inhibition as a % of control [5, 12]: 12 % of control | Tumor growth inhibition as a % of control [6]: 93.4 % of control | severe neurosensory symptoms (paresthesia, dysesthesia, pain) ([7]; 53/965 metastatic breast cancer patients): 5.5% | treatment discontinuation due to severe neurosensory symptoms ([7]; metastatic breast cancer patients): 6.1%

SMILES: C#Cc1cccc(Nc2ncnc3cc(OCCOC)c(OCCOC)cc23)c1 [Erlotinib, reference compound]
Grade 3/4 diarrhea [8, 13]: 6% | Grade 3/4 rash [8, 13]: 9% | median time to onset of diarrhea [8, 13]: 12 days | median time to onset of rash [8, 13]: 8 days | patients needing dose reduction for diarrhea [8, 13]: 1% | patients needing dose reduction for rash [8, 13]: Six | study discontinuation due to diarrhea [8, 13]: 1% | study discontinuation due to rash [8, 13]: 1% | median time to start of ILD-like symptoms after initiating therapy ([8]; range 5 days to more than 9 months): 39 days | Cmax ([9]; geometric mean (% CV), dosed alone, selumetinib 50 mg cohort (N = 14), erlotinib 100 mg QD): 1681 (27.13) [13] ng/mL | Cmax ([9]; geometric mean (% CV), dosed in combination, selumetinib 50 mg BID (N = 12) + erlotinib 100 mg QD): 1725 (30.11) ng/mL | Cmax ([9]; geometric mean (% CV), dosed in combination, selumetinib 75 mg BID (N = 6) + erlotinib 100 mg QD): 1739 (39.86) ng/mL | Cmax ([9]; geometric mean, QD cohorts, dosed alone, selumetinib 100 mg cohort (N = 6), erlotinib 100 mg QD): 1180 ng/mL | AUC(0–8) [9, 14]: 12,710^c ng•h/mL | Cmax [9, 14]: 1980^c ng/mL | Cmax ([9]; geometric mean, QD cohorts, in combination, selumetinib 50 mg (N = 6) + erlotinib 100 mg QD): 1468^d ng/mL | tmax ([9]; human, plasma, oral): 1.5 h | tmax ([9]; human, plasma, oral, 100 mg): 1.5 h | AUC(0-t) ([9]; human, plasma, oral, 100 mg, AUC(0–8), geometric mean, QD cohorts, dosed alone, selumetinib 100 mg cohort (N = 6), erlotinib 100 mg QD): 7100 ng·h/mL | AUC(0-t) ([9]; human, plasma, oral, 100 mg, AUC(0–12), geometric mean, QD cohorts, dosed alone, selumetinib 100 mg cohort (N = 6), erlotinib 100 mg QD): 10300 ng·h/mL | AUC(0-t) ([9]; human, plasma, oral, AUC(0–8), geometric mean (% CV), dosed alone, selumetinib 50 mg cohort (N = 14), erlotinib 100 mg QD): 10100 ng·h/mL | AUC(0-t) ([9]; human, plasma, oral, AUC(0–8), geometric mean (% CV), dosed alone, selumetinib 75 mg cohort (N = 6), erlotinib 100 mg QD): 9590 ng·h/mL | AUC(0-t) ([9]; human, plasma, oral, AUC(0–8), geometric mean (% CV), dosed in combination, selumetinib 50 mg BID (N = 12) + erlotinib 100 mg QD): 10400 ng·h/mL | AUC(0-t) ([9]; human, plasma, oral, AUC(0–8), geometric mean (% CV), dosed in combination, selumetinib 75 mg BID (N = 6) + erlotinib 100 mg QD): 10400 ng·h/mL | AUC(0-t) ([9]; human, plasma, oral, AUC(0–8), geometric mean, QD cohorts, dosed alone, selumetinib 50 mg cohort (N = 7), erlotinib 100 mg QD): 9620 ng·h/mL | AUC(0-t) ([9]; human, plasma, oral, AUC(0–8), geometric mean, QD cohorts, in combination, selumetinib 50 mg (N = 6) + erlotinib 100 mg QD): 8600 ng·h/mL | AUC(0-t) ([9]; human, plasma, oral, AUC(0–8), geometric mean, QD cohorts, in combination, selumetinib 100 mg (N = 6) + erlotinib 100 mg QD): 8500 ng·h/mL | AUC(0-t) ([9]; human, plasma, oral, AUC(0–8), geometric mean, QD cohorts, in combination, selumetinib 150 mg (N = 12) + erlotinib 100 mg QD): 13000 ng·h/mL | AUC(0-t) ([9]; human, plasma, oral, AUC(0–12), geometric mean (% CV), dosed alone, selumetinib 50 mg cohort (N = 14), erlotinib 100 mg QD): 14500 ng·h/mL | AUC(0-t) ([9]; human, plasma, oral, AUC(0–12), geometric mean (% CV), dosed alone, selumetinib 75 mg cohort (N = 6), erlotinib 100 mg QD): 13800 ng·h/mL | AUC(0-t) ([9]; human, plasma, oral, AUC(0–12), geometric mean (% CV), dosed in combination, selumetinib 50 mg BID (N = 12) + erlotinib 100 mg QD): 14700 ng·h/mL | AUC(0-t) ([9]; human, plasma, oral, AUC(0–12), geometric mean (% CV), dosed in combination, selumetinib 75 mg BID (N = 6) + erlotinib 100 mg QD): 14700 ng·h/mL | AUC(0-t) ([9]; human, plasma, oral, AUC(0–12), geometric mean, QD cohorts, dosed alone, selumetinib 50 mg cohort (N = 7), erlotinib 100 mg QD): 14000 ng·h/mL | AUC(0-t) ([9]; human, plasma, oral, AUC(0–12), geometric mean, QD cohorts, dosed alone, selumetinib 150 mg cohort (N = 13), erlotinib 100 mg QD): 18300 ng·h/mL | AUC(0-t) ([9]; human, plasma, oral, AUC(0–12), geometric mean, QD cohorts, in combination, selumetinib 100 mg (N = 6) + erlotinib 100 mg QD): 12000 ng·h/mL | AUC(0-t) ([9]; human, plasma, oral, AUC(0–12), geometric mean, QD cohorts, in combination, selumetinib 150 mg (N = 12) + erlotinib 100 mg QD): 18600 ng·h/mL | Cmax ([9]; human, plasma, oral, Cmax, geometric mean (% CV), dosed alone, selumetinib 75 mg cohort (N = 6), erlotinib 100 mg QD): 1420 ng/mL | Cmax ([9]; human, plasma, oral, Cmax, geometric mean, QD cohorts, dosed alone, selumetinib 50 mg cohort (N = 7), erlotinib 100 mg QD): 1620 ng/mL | Cmax ([9]; human, plasma, oral, Cmax, geometric mean, QD cohorts, in combination, selumetinib 100 mg (N = 6) + erlotinib 100 mg QD): 1430 ng/mL | Cmax ([9]; human, plasma, oral, Cmax, geometric mean, QD cohorts, in combination, selumetinib 150 mg (N = 12) + erlotinib 100 mg QD): 2030 ng/mL | tmax ([9]; median (range), QD cohorts, dosed alone, selumetinib 150 mg cohort (N = 13), erlotinib 100 mg QD): 2.00 (1.00–6.00)^c h | tmax ([9]; median (range), QD cohorts, in combination, selumetinib 50 mg (N = 6) + erlotinib 100 mg QD): 4.00 (1.00–8.00)^d h | tmax ([9]; median (range), dosed alone, selumetinib 75 mg cohort (N = 6), erlotinib 100 mg QD): 3.0 (2.0–6.0) h | PK parameters when administered alone and in combination ([9]; selumetinib + erlotinib arm): similar

SMILES: CCc1c2c(nc3ccc(OC(=O)N4CCC(N5CCCCC5)CC4)cc13)-c1cc3c(c(=O)n1C2)COC(=O)[C@]3(O)CC [Irinotecan]
Tumor growth inhibition as a % of control [5, 12]: 67 % of control

AUC(0-t) [10, 15]: 341 ng·h/mL | AUC(0–12) [10, 15]: 514 ng·h/mL | Cmax [10, 15]: 58.5 ng/mL | AUC(0-t) [10, 16]: 266 ng·h/mL | AUC(0–12) [10, 16]: 382 ng·h/mL | Cmax [10, 16]: 49.5 ng/mL | AUC(0-t) [10, 17]: 394 ng·h/mL | AUC(0–12) [10, 17]: 584 ng·h/mL | Cmax [10, 17]: 67 ng/mL | AUC(0-t) [10, 18]: 292 ng·h/mL | AUC(0–12) [10, 18]: 360 ng·h/mL | Cmax [10, 18]: 51.2 ng/mL | tmax [10, 15]: 1.5 h | tmax [10, 16]: 2 h | tmax [10, 17]: 1.5 h | tmax [10, 18]: 2 h
SMILES: CO[C@H]1C[C@@H]2CC[C@@H](C)[C@@](O)(O2)C(=O)C(=O)N2CCCC[C@H]2C(=O)O[C@H]([C@H](C)C[C@@H]2CC[C@@H](O)[C@H](OC)C2)CC(=O)[C@H](C)/C=C(\C)[C@@H](O)[C@@H](OC)C(=O)[C@H](C)C[C@H](C)/C=C/C=C/C=C/1C [Sirolimus]
Tumor growth inhibition as a % of control [11]: 38 % of control

SMILES: Cn1nnc2c(C(N)=O)ncn2c1=O [Temozolamide]
Tumor growth inhibition as a % of control ([5]; temozolamide experiment, usual monotherapy schedules, doses not given): 15 % of control
